Experimental findings from ChEMBL document CHEMBL1129517, “Pyrazolo[4,3-e]-1,2,4-triazolo[1,5-c]pyrimidine derivatives: potent and selective A(2A) adenosine antagonists” (J Med Chem, 1996) are described below.

One assay has as its target Adenosine receptor A2a (Rattus norvegicus, UniProt P30543).
Another assay deals with T1, Adenosine receptor A1 (Rattus norvegicus, UniProt P25099).
T1 sequence (P25099 whole entry): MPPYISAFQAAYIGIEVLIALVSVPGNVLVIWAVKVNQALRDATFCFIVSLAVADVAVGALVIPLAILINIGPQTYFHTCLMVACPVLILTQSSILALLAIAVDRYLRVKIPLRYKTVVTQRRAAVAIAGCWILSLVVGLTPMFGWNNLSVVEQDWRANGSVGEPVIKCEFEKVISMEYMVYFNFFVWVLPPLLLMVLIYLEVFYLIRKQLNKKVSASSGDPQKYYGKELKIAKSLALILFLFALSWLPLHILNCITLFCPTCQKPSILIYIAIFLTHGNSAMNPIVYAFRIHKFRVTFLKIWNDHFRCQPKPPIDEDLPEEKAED
As to the kind of experiment: biochemical.

For assay [1], the system named is Adenosine receptor A2a (Oryctolagus cuniculus).

Adenosine receptor A2a, sequence (P30543 whole entry): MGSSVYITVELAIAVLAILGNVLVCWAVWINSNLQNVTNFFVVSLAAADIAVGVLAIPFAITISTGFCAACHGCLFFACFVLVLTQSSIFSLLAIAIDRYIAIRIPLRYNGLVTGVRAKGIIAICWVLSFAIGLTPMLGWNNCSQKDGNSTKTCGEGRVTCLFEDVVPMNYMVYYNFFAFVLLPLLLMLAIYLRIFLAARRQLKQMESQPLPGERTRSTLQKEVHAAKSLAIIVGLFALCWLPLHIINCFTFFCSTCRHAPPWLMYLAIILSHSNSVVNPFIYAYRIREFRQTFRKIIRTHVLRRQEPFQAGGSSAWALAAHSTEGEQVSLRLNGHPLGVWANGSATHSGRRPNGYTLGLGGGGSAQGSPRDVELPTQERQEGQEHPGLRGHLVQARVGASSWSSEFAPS
Description for Adenosine receptor A1: Inhibition of [3H]-CHA binding to Adenosine A1 receptor in rat whole brain homogenates.

For `CCC(C)Cn1ncc2c1nc(N)n1nc(-c3ccco3)nc21` (centres undefined), the results for the Ki at Adenosine receptor A2a and on Adenosine receptor A1 were 12 nM and 116 nM, respectively.

As for `CC(C)Cc1ccc(CCn2ncc3c2nc(N)n2nc(-c4ccco4)nc32)cc1`, the Ki on Adenosine receptor A2a is 22 nM; on Adenosine receptor A1 it was more than 3000 nM. The compound also gave an ED50 in assay [1] of less than 1000 nM.

For the compound `CC(C)(C)n1ncc2c1nc(N)n1nc(-c3ccco3)nc21`, the Ki on Adenosine receptor A2a is 260 nM; on Adenosine receptor A1, 430 nM.

In assay [1], `Nc1nc2nn(Cc3ccc(F)cc3)cc2c2nc(-c3ccco3)nn12` had an ED50 of 4 nM.

`Nc1nc2c(cnn2CCCCc2ccccc2)c2nc(-c3ccco3)nn12`: the Ki at Adenosine receptor A2a was found to be 21 nM; at Adenosine receptor A1 it was 2710 nM.

Turning to `Nc1nc2c(cnn2CCN2CCOCC2)c2nc(-c3ccco3)nn12`, the Ki at Adenosine receptor A2a was 5.6 nM; at Adenosine receptor A1 it was 471 nM. Also, the ED50 in assay [1] was determined as 30 nM.

Turning to `Nc1nc2c(cnn2-c2ccccc2)c2nc(-c3ccco3)nn12`, the inhibitory constant (Ki) at Adenosine receptor A2a was found to be 22.7 nM; at Adenosine receptor A1 it was 119 nM. Further, the ED50 in assay [1] is more than 1000 nM.

Turning to `Nc1nc2c(cnn2CCOCc2ccccc2)c2nc(-c3ccco3)nn12`, the Ki on Adenosine receptor A2a and on Adenosine receptor A1 was more than 1000 nM each time.

For the compound `Nc1nc2c(cnn2Cc2ccc(F)cc2)c2nc(-c3ccco3)nn12`, the Ki on Adenosine receptor A2a turned out to be 12 nM; on Adenosine receptor A1 it was 189 nM. The compound further yielded an ED50 in assay [1] of 10600 nM.

With `OCCn1ncc2c1nc(NCc1ccccc1)n1nc(-c3ccco3)nc21`, the Ki at Adenosine receptor A2a came to 166 nM; on Adenosine receptor A1 it was 330 nM.

With `Nc1nc2c(cnn2CCO)c2nc(-c3ccco3)nn12`, the Ki on Adenosine receptor A2a came to 77.7 nM.

With `Nc1nc2n[nH]cc2c2nc(-c3ccco3)nn12`, the Ki at Adenosine receptor A2a was determined as 22.6 nM; at Adenosine receptor A1 it was 210 nM.

In the case of `Nc1nc2c(cnn2CCCc2ccccc2)c2nc(-c3ccco3)nn12` [SCH-63390], the results for the Ki at Adenosine receptor A2a and at Adenosine receptor A1 were 2.4 nM and 504 nM, respectively.

Compound `CCCCn1ncc2c1nc(N)n1nc(-c3ccco3)nc21` came in with an ED50 in assay [1] of 300 nM.

For orientation: Ki means the dissociation constant of the complex between target and ligand, obtained from inhibition or displacement. Read a low Ki as higher affinity.
